This assay deals with PC3 cells. Briefly: NAMPT Cell Proliferation Assay. The assay is classed as cell-based. As to conditions: Homo sapiens, PC-3, 120 h, 5 days incubation, cell viability by Cell Titer Glo. The method in brief:
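Seeded at 500 cells/well in RPMI with 10% heat-inactivated FBS and left to attach overnight at 37° C, 5% CO2. Compounds were added as 10-fold dilutions […] for 5 days, then viability was read by CellTiter-Glo. IC50s came from sigmoidal fits of percent inhibition.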

pIC50: −log10 of the molar value.

`CC(C)Cn1cc(-c2ccc(C(=O)N[C@@H]3CCN(c4cnnc(Cl)c4Cl)C3)s2)cn1` [Example 618, N-[(3R)-1-(5,6-dichloropyridazin-4-yl)pyrrolidin-3-yl]-5-[1-(2-methylpropyl)-1H-pyrazol-4-yl]thiophene-2-carboxamide] had a pIC50 of less than 5.00.

`CC(C)Cn1cc(-c2ccc(C(=O)N[C@@H]3CCN(c4ccc(Cl)nn4)C3)s2)cn1` [Example 619, N-[(3R)-1-(6-chloropyridazin-3-yl)pyrrolidin-3-yl]-5-[1-(2-methylpropyl)-1H-pyrazol-4-yl]thiophene-2-carboxamide] had a pIC50 of less than 5.00. With `CC(C)Cn1cc(-c2ccc(C(=O)N[C@H]3CCN(c4cnnc(Cl)c4Cl)C3)s2)cn1` [Example 620, N-[(3S)-1-(5,6-dichloropyridazin-4-yl)pyrrolidin-3-yl]-5-[1-(2-methylpropyl)-1H-pyrazol-4-yl]thiophene-2-carboxamide] the figure was 5.55; with `CC(C)Cn1cc(-c2ccc(C(=O)N[C@H]3CCN(c4ccc(Cl)nn4)C3)s2)cn1` [Example 621, N-[(3S)-1-(6-chloropyridazin-3-yl)pyrrolidin-3-yl]-5-[1-(2-methylpropyl)-1H-pyrazol-4-yl]thiophene-2-carboxamide], less than 5.00; with `CC(C)Cn1cc(-c2cc(C(=O)N[C@@H]3CCN(c4cnnc(Cl)c4Cl)C3)cs2)cn1` [Example 622, N-[(3R)-1-(5,6-dichloropyridazin-4-yl)pyrrolidin-3-yl]-5-[1-(2-methylpropyl)-1H-pyrazol-4-yl]thiophene-3-carboxamide], less than 5.00.

`CC(C)Cn1cc(-c2cc(C(=O)N[C@@H]3CCN(c4cccnn4)C3)cs2)cn1` [Example 623, 5-[1-(2-methylpropyl)-1H-pyrazol-4-yl]-N-[(3R)-1-(pyridazin-3-yl)pyrrolidin-3-yl]thiophene-3-carboxamide] showed a pIC50 of 5.21. Next, `CC(C)Cn1cc(-c2cc(C(=O)N[C@@H]3CCN(c4ccnnc4)C3)cs2)cn1` [Example 624, 5-[1-(2-methylpropyl)-1H-pyrazol-4-yl]-N-[(3R)-1-(pyridazin-4-yl)pyrrolidin-3-yl]thiophene-3-carboxamide]: less than 5.00; `CC(C)(C)C(=O)N1CCC(c2ccc(NC(=O)C3CCN(c4cccnn4)CC3)cc2)CC1` [Example 625, N-{4-[1-(2,2-dimethylpropanoyl)piperidin-4-yl]phenyl}-1-(pyridazin-3-yl)piperidine-4-carboxamide]: 5.72; `O=C(Nc1ccc(C2CCN(C(=O)c3ccccc3)CC2)cc1)C1CCN(c2cccnn2)CC1` [Example 626, N-[4-(1-benzoylpiperidin-4-yl)phenyl]-1-(pyridazin-3-yl)piperidine-4-carboxamide]: 5.28. With `O=C(Nc1ccc(C2CCN(C(=O)c3ccccc3F)CC2)cc1)C1CCN(c2cccnn2)CC1` [Example 627, N-{4-[1-(2-fluorobenzoyl)piperidin-4-yl]phenyl}-1-(pyridazin-3-yl)piperidine-4-carboxamide] the figure was 6.07.

On to `O=C(Nc1ccc(C2CCN(C(=O)CCC(F)(F)F)CC2)cc1)C1CCN(c2cccnn2)CC1` [Example 628, 1-(pyridazin-3-yl)-N-{4-[1-(4,4,4-trifluorobutanoyl)piperidin-4-yl]phenyl}piperidine-4-carboxamide], for which the pIC50 was less than 5.00. The compound `CC(C)Cn1cc(-c2cc(C(=O)N[C@H]3CCN(c4ccc(Cl)nn4)C3)cs2)cn1` [Example 629, N-[(3S)-1-(6-chloropyridazin-3-yl)pyrrolidin-3-yl]-5-[1-(2-methylpropyl)-1H-pyrazol-4-yl]thiophene-3-carboxamide] had a pIC50 of 5.30.

As to `O=C(Nc1ccc(C2CCN(C(=O)c3cncs3)CC2)cc1)[C@H]1CCN(c2cccnn2)C1` [Example 630, (3S)-1-(pyridazin-3-yl)-N-{4-[1-(1,3-thiazol-5-ylcarbonyl)piperidin-4-yl]phenyl}pyrrolidine-3-carboxamide], the pIC50 was 8.09. This pIC50 is 2.79 log units higher than that of the compound before. For `Cc1ccc(C(=O)N2CCC(c3ccc(NC(=O)[C@H]4CCN(c5cccnn5)C4)cc3)CC2)cc1` [Example 631, (3S)-N-{4-[1-(4-methylbenzoyl)piperidin-4-yl]phenyl}-1-(pyridazin-3-yl)pyrrolidine-3-carboxamide], the pIC50 is 8.02. This pIC50 and that of the compound before are within 0.2 log units of each other. For the compound `CC[C@H](C(=O)N1CCC(c2ccc(NC(=O)[C@H]3CCN(c4cccnn4)C3)cc2)CC1)c1ccccc1` [Example 632, (3S)-N-(4-{1-[(2S)-2-phenylbutanoyl]piperidin-4-yl}phenyl)-1-(pyridazin-3-yl)pyrrolidine-3-carboxamide], the pIC50 is 8.06. With `CO[C@H](C(=O)N1CCC(c2ccc(NC(=O)[C@H]3CCN(c4cccnn4)C3)cc2)CC1)c1ccccc1` [Example 633, (3S)-N-(4-{1-[(2S)-2-methoxy-2-phenylacetyl]piperidin-4-yl}phenyl)-1-(pyridazin-3-yl)pyrrolidine-3-carboxamide] the figure was 8.05. Compound `CO[C@@H](C(=O)N1CCC(c2ccc(NC(=O)[C@H]3CCN(c4cccnn4)C3)cc2)CC1)c1ccccc1` [Example 634, (3S)-N-(4-{1-[(2R)-2-methoxy-2-phenylacetyl]piperidin-4-yl}phenyl)-1-(pyridazin-3-yl)pyrrolidine-3-carboxamide] showed a pIC50 of 8.04. Regarding `CCOCC(=O)N1CCC(c2ccc(NC(=O)[C@H]3CCN(c4cccnn4)C3)cc2)CC1` [Example 635, (3S)-N-{4-[1-(ethoxyacetyl)piperidin-4-yl]phenyl}-1-(pyridazin-3-yl)pyrrolidine-3-carboxamide], the pIC50 is 7.38. Next, `Cc1ccc(OCC(=O)N2CCC(c3ccc(NC(=O)[C@H]4CCN(c5cccnn5)C4)cc3)CC2)cc1` [Example 636, (3S)-N-(4-{1-[(4-methylphenoxy)acetyl]piperidin-4-yl}phenyl)-1-(pyridazin-3-yl)pyrrolidine-3-carboxamide]: 7.08. Next, `O=C(Nc1ccc(C2CCN(C(=O)c3ccccc3F)CC2)cc1)[C@H]1CCN(c2cccnn2)C1` [Example 637, (3S)-N-{4-[1-(2-fluorobenzoyl)piperidin-4-yl]phenyl}-1-(pyridazin-3-yl)pyrrolidine-3-carboxamide]: 8.91. Compound `O=C(Nc1ccc(C2CCN(C(=O)C3CCOC3)CC2)cc1)[C@H]1CCN(c2cccnn2)C1` (stereo partly drawn) [Example 638, (3S)-1-(pyridazin-3-yl)-N-{4-[1-(tetrahydrofuran-3-ylcarbonyl)piperidin-4-yl]phenyl}pyrrolidine-3-carboxamide] had a pIC50 of 7.52. With `O=C(Nc1ccc(C2CCN(C(=O)c3cccc4ccccc34)CC2)cc1)[C@H]1CCN(c2cccnn2)C1` [Example 639, (3S)-N-{4-[1-(naphthalen-1-ylcarbonyl)piperidin-4-yl]phenyl}-1-(pyridazin-3-yl)pyrrolidine-3-carboxamide] the figure was 8.09; with `O=C(Nc1ccc(C2CCN(C(=O)Cc3c(Cl)cccc3Cl)CC2)cc1)[C@H]1CCN(c2cccnn2)C1` [Example 640, (3S)-N-(4-{1-[(2,6-dichlorophenyl)acetyl]piperidin-4-yl}phenyl)-1-(pyridazin-3-yl)pyrrolidine-3-carboxamide], 8.53. Regarding `O=C(Nc1ccc(C2CCN(C(=O)Cc3cccc4ccccc34)CC2)cc1)[C@H]1CCN(c2cccnn2)C1` [Example 641, (3S)-N-{4-[1-(naphthalen-1-ylacetyl)piperidin-4-yl]phenyl}-1-(pyridazin-3-yl)pyrrolidine-3-carboxamide], the negative-log IC50 (pIC50) was 7.14.

In the case of `O=C(Nc1ccc(C2CCN(C(=O)CCCc3cccs3)CC2)cc1)[C@H]1CCN(c2cccnn2)C1` [Example 642, (3S)-1-(pyridazin-3-yl)-N-(4-{1-[4-(thiophen-2-yl)butanoyl]piperidin-4-yl}phenyl)pyrrolidine-3-carboxamide], the pIC50 was 8.14. Next, `O=C(Nc1ccc(C2CCN(C(=O)CC3CC3)CC2)cc1)[C@H]1CCN(c2cccnn2)C1` [Example 643, (3S)-N-{4-[1-(cyclopropylacetyl)piperidin-4-yl]phenyl}-1-(pyridazin-3-yl)pyrrolidine-3-carboxamide]: 8.07; `O=C(Nc1ccc(C2CCN(C(=O)CC3CCCC3)CC2)cc1)[C@H]1CCN(c2cccnn2)C1` [Example 644, (3S)-N-{4-[1-(cyclopentylacetyl)piperidin-4-yl]phenyl}-1-(pyridazin-3-yl)pyrrolidine-3-carboxamide]: 8.08; `O=C(Nc1ccc(C2CCN(C(=O)c3cc(F)ccc3F)CC2)cc1)[C@H]1CCN(c2cccnn2)C1` [Example 645, (3S)-N-{4-[1-(2,5-difluorobenzoyl)piperidin-4-yl]phenyl}-1-(pyridazin-3-yl)pyrrolidine-3-carboxamide]: 8.48.

Regarding `O=C(Nc1ccc(C2CCN(C(=O)Cc3ccc4ccccc4c3)CC2)cc1)[C@H]1CCN(c2cccnn2)C1` [Example 646, (3S)-N-{4-[1-(naphthalen-2-ylacetyl)piperidin-4-yl]phenyl}-1-(pyridazin-3-yl)pyrrolidine-3-carboxamide], the pIC50 is 7.23. For the compound `O=C(Nc1ccc(C2CCN(C(=O)CCS(=O)(=O)c3ccccc3)CC2)cc1)[C@H]1CCN(c2cccnn2)C1` [Example 647, (3S)-N-(4-{1-[3-(phenylsulfonyl)propanoyl]piperidin-4-yl}phenyl)-1-(pyridazin-3-yl)pyrrolidine-3-carboxamide], the pIC50 is 8.24. Next, `O=C(Nc1ccc(C2CCN(C(=O)Cc3cccc(C(F)(F)F)c3)CC2)cc1)[C@H]1CCN(c2cccnn2)C1` [Example 648, (3S)-1-(pyridazin-3-yl)-N-[4-(1-{[3-(trifluoromethyl)phenyl]acetyl}piperidin-4-yl)phenyl]pyrrolidine-3-carboxamide]: 7.57; `O=C(Nc1ccc(C2CCN(C(=O)c3ccco3)CC2)cc1)[C@H]1CCN(c2cccnn2)C1` [Example 649, (3S)-N-{4-[1-(furan-2-ylcarbonyl)piperidin-4-yl]phenyl}-1-(pyridazin-3-yl)pyrrolidine-3-carboxamide]: 8.95.

The record behind these values is patent US20130303509A1, “NAMPT INHIBITORS” (AbbVie Inc., priority 2012, published 2013).
